In one test the target is T1, human P2Y13 (GPR86) (Homo sapiens, UniProt Q9BPV8, T179M).
T1 construct: expressed in transfected cells; host or cells: 1321N1 astrocytoma clone AG32 (stably expressing Gα16 from pERAEQ2), G418-selected
T1 sequence (Q9BPV8 22-354 T179M): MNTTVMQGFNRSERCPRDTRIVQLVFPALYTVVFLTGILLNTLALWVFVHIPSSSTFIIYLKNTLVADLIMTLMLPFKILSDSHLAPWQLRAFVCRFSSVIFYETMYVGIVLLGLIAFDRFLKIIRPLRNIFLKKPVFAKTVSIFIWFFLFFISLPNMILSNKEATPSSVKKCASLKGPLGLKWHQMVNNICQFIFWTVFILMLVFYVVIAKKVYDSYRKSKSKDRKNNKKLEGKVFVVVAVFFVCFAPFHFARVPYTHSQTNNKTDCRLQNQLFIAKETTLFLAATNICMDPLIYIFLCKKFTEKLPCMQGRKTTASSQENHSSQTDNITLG
As to the kind of experiment: Antagonism of ADP-induced IP3 accumulation in human P2Y13-AG32 cells. As to conditions: 10 min pre-incubation, then ADP 100 nM for 30 s; means±S.D. of three independent experiments. The class given is cell-based. How it is done: Antagonist were tested on AG32 cells transfected with human GPR86. AG32 cells were seeded (200,000 cells per dish) on 35 mm (diameter) Petri dishes and labeled for 24 h with 5 μCi/ml [^3H]-myoinositol in inositol free DMEM containing 5% fetal calf serum, antibiotics, amphotericin, sodium pyruvate, and 400 μg/ml of G418. […] Prior to the stimulation, cells were pre-incubated for 10 min in presence of Reactive Blue 2 (RB-2), Suramine, PPADS or MRS-2179. The cells were then incubated in presence of ADP 100 nM for 30 s. The incubation was stopped by the addition of 1 ml of an ice-cold 3% perchloric acid solution. […] The data represent the mean±S.D. of triplicate experimental points obtained in one representative experiment of three.

Test [1] relates to 1321N1 cells expressing GPR86 receptor alone. As to conditions: nucleotides 100 μM for 30 s.
Protocol: Cells of the invention, for example, 1321N1 cells, are labelled for 24 hours with 10 μCi/ml [^3H] inositol in inositol free DMEM containing 5% FCS, antibiotics, amphotericin, sodium pyruvate and 400 μg/ml G418. Cells are incubated for 2 h in Krebs-Ringer Hepes (KRH) buffer of the following composition (124 mM NaCl, 5 mM KCl, 1.25 mM MgSO4, 1.45 mM CaCl2, 1.25 mM KH2PO4, 25 mM Hepes (pH: 7.4) and 8 mM glucose). The cells are then challenged with various nucleotides for 30 s. The incubation is stopped by the addition of an ice cold 3% perchloric acid solution. IP are extracted and separated on Dowex columns as previously described (25). 2MeSATP and ATP solutions (1 mM) are treated at room temperature with 20 units/ml CPK and 10 Mm cp for 90 min to circumvent problems arising from the contamination and degradation of triphosphate nucleotide solutions.
The pool of G418-resistant clones was tested for its functional IP3 response to several nucleotides, according to the method described above. The cells were challenged by various nucleotides at a concentration of 100 μM for 30 s: ATP, ADP, UTP, UDP, ITP, IDP, TDP.

`Cc1ccc(C(=O)Nc2ccc(S(=O)(=O)O)c3cc(S(=O)(=O)O)cc(S(=O)(=O)O)c23)cc1NC(=O)c1cccc(NC(=O)Nc2cccc(C(=O)Nc3cc(C(=O)Nc4ccc(S(=O)(=O)O)c5cc(S(=O)(=O)O)cc(S(=O)(=O)O)c45)ccc3C)c2)c1` [Suramine]: it took 2300 ± 400 nM to reach half-maximal inhibition on human P2Y13 (GPR86) (IC50).
As to `NCCc1c[nH]cn1` [histamine], the IP3 response entry in test [1] is recorded as “strong IP3 response”.
For the molecule `CNc1ncnc2c1ncn2[C@H]1C[C@H](OP(=O)(O)O)[C@@H](COP(=O)(O)O)O1` [MRS-2179], at human P2Y13 (GPR86), the 50% inhibitory concentration (IC50) (as a rule, the concentration that gives 50% inhibition) is > 100000 nM.
On the same count and under the same terms, the figure for `Cc1nc(N=Nc2ccc(S(=O)(=O)O)cc2S(=O)(=O)O)c(COP(=O)(O)O)c(C=O)c1O` [PPADS] is 11700 ± 900 nM.
On the same count and under the same terms, the figure for Reactive Blue 2 is 1900 ± 100 nM.

The values above are taken from patent US7422846B2, “Natural ligand for orphan G protein coupled receptor GPR86 and methods of use” (Euroscreen S.A, priority 2001, dated 2008).
